For experiment [1], the system named is volunteers with a history of skin sensitivity to Balsam of Peru. The experiment is described as follows: in vivo skin anti-irritancy test, Balsam of Peru challenge, redness by Minolta chromameter (Example 2). The settings on record: for % Decrease In Redness: 20 min before Balsam of Peru, 7 volunteers; for preventing irritation caused by a topical irritant (in words): Balsam of Peru challenge, 0.1%. The text has this: The following in vivo assay illustrates the effectiveness of sialyl oligosaccharide derivatives, 3'- and 6'-sialyl lactose, in preventing skin irritation. The in vivo assays used to assess efficacy of topical anti-irritants are known to those skilled in the art, examples of such assays may be found in Muizzuddin et al., 1990, J. Soc. Cosmet. Chem. 41:369-378, and Lubach et al. in Topical Corticoids, Maibach & Surber (eds.) Basel, Karger, 1992, pp. 26-41, both of which are incorporated herein by reference in their entirety. The skin anti-irritancy effects of 3'- and 6'- sialyl lactose were tested on 7 volunteers with a history of skin sensitivity to Balsam of Peru. The test compounds were applied to the ventral forearms of the panelists. The material was allowed to absorb for twenty minutes and then Balsam of Peru, an irritant, was applied to the test sites. Skin irritation was measured in terms of increase in skin redness.
The degree of redness was measured with the Minolta chromameter and compared with the positive and negative controls. The positive control was the color of skin treated with Balsam of Peru alone and the negative control was the skin treated with cola material challenged like the test material.

Experiment [2] has the same test system. Description: in vivo skin anti-irritancy test, Balsam of Peru challenge, redness by Minolta chromameter (Example 3). The following applies: 0.1% topical on ventral forearm, 20 min before Balsam of Peru, 7 volunteers. As to the method: The following in vivo assay illustrates the effectiveness of 3'-sialyl oligosaccharide derivatives in preventing skin irritation. The skin anti-irritancy effects of various derivatives of 3'-sialyl lactose were tested on 7 volunteers with a history of skin sensitivity to Balsam of Peru. The test compounds benzyl sialyl lactose and ethyl sialyl lactose were applied to the ventral forearms of the panelists. The material was allowed to absorb for twenty minutes and then Balsam of Peru, an irritant, was applied on the test sites. Skin irritation was measured in terms of increase in skin redness. The degree of redness was measured with the Minolta chromameter and compared with the positive and negative controls. The positive control was the color of skin treated with Balsam of Peru alone and the negative control was the skin treated with cola material challenged like the test material.

In the next experiment the test system is PMN-endothelial cells. The experiment is described as follows: in vitro inhibition of adhesion of activated neutrophils to endothelial cells. In kind it is cell-based. The settings on record: for % Inhibition of Adhesion: neutrophils activated with interleukin-1 or TPA. On the procedure: The following in vitro assay illustrates the effectiveness of the sialyl oligosaccharide derivative, 3' sialyl lactose, in inhibiting the adhesion of cells that express SLeX on their surfaces to cells expressing a selectin receptor. The ability of 3'-sialyl lactose to inhibit cell adhesion was tested using an in vitro assay system. Neutrophils were activated with either interleukin-1 or phorbol ester, TPA, to induce expression of selections and binding to endothelial cells. The activated neutrophils were treated with either 3'-sialyl lactose at 0.01 and 0.02%, sucrose at 4% or a positive control, and then assayed for their ability to bind to PMN-endothelial cells.

Where [3] appears, read: 0.1% topical on ventral forearm.

“And” between values parts separate entries of the source, which are not always exact repeats. Equal entries are not always repeated.

Take `CC(=O)N[C@H]1[C@H]([C@H](O)[C@H](O)CO)O[C@@](O[C@H]2[C@@H](O)[C@@H](CO)O[C@@H](O[C@H]3[C@H](O[C@@H]4O[C@@H](C)[C@@H](O)[C@@H](O)[C@@H]4O)[C@@H](NC(C)=O)C(O)O[C@@H]3CO)[C@@H]2O)(C(=O)O)C[C@@H]1O` (some centres unmarked) [Sialyl Lewis X, NeuAcα2-3βGalβ1-4(Fucα1-3)GlcNAc, reference compound]: the “% Decrease In Redness” value in experiment [1] (setting [3]) is on record as 66%. `C[C@]12CCC(=O)C=C1CC[C@@H]1[C@@H]2[C@@H](O)C[C@@]2(C)[C@H]1CC[C@]2(O)C(=O)CO` [Hydrocortisone, reference compound]: in experiment [1] (0.5% topical on ventral forearm), the “% Decrease In Redness” value was found to be 66%. Turning to `OC[C@H]1O[C@@H](O[C@H]2[C@H](O)[C@@H](O)C(O)O[C@@H]2CO)[C@H](O)[C@@H](O)[C@H]1O` (some centres unmarked) [Lactose, reference compound], the “% Decrease In Redness” value in experiment [1] (setting [3]) is on record as 45%. Besides, the “preventing irritation caused by a topical irritant (in words)” value (“preventing irritation caused” below) in experiment [1] was “ineffective”. Regarding benzyl sialyl lactose, the “% Decrease In Redness” value in experiment [2] and in experiment [2] (listed as benzyl sialyl lactose) was 42.47% throughout. Consider `CC(=O)N[C@H]1[C@H]([C@H](O)[C@H](O)CO)O[C@@](O[C@H]2[C@@H](O)[C@@H](CO)O[C@@H](O[C@H]3[C@H](O)[C@@H](O)C(O)O[C@@H]3CO)[C@@H]2O)(C(=O)O)C[C@@H]1O` (some centres unmarked) [3'-Sialyl lactose, 3'-N acetylneuraminyl-lactose], for which, in experiment [1] (setting [3]), the “% Decrease In Redness” value is 69% and 67%. For the same compound, the “preventing irritation caused” value in experiment [1] was “significant activity”. Also, the “inhibiting the adhesion of cells that express SLeX to cells expressing a selectin receptor (in words)” value with PMN-endothelial cells (0.02%, IL-1 induced neutrophils) is listed as “very effective”. In addition, the “% Inhibition of Adhesion” value with PMN-endothelial cells (test compound at 0.01%) is recorded as 39%; in the experiment on PMN-endothelial cells (test compound at 0.02%), 61%. In the case of ethyl sialyl lactose, the “% Decrease In Redness” value in experiment [2] and in experiment [2] (listed as lactose ethyl) was 40.6% each time.

As to `CC(=O)N[C@H]1[C@H]([C@H](O)[C@H](O)CO)OC(O)(C(=O)O)C[C@@H]1O` (some centres unmarked) [Sialic Acid, reference compound], in experiment [1] (setting [3]), the “% Decrease In Redness” value came out at 31%.

On to `OC[C@H]1O[C@@](CO)(O[C@H]2O[C@H](CO)[C@@H](O)[C@H](O)[C@H]2O)[C@@H](O)[C@@H]1O` [Sucrose, reference compound], for which, in the experiment on PMN-endothelial cells (test compound at 4.0%), the “% Inhibition of Adhesion” value was found to be 40%. Turning to `CC(=O)N[C@H]1[C@H]([C@H](O)[C@H](O)CO)O[C@@](OC[C@H]2O[C@@H](O[C@H]3[C@H](O)[C@@H](O)[C@H](O)O[C@@H]3CO)[C@H](O)[C@@H](O)[C@H]2O)(C(=O)O)C[C@@H]1O` [6'-Sialyl lactose, 6'-sialyl lactose], the “% Decrease In Redness” value in experiment [1] (setting [3]) is given as 57%. Further, in experiment [1], the “preventing irritation caused” value is “significant activity”.

Source of the values: EP1032364B1, “TOPICAL COMPOSITIONS CONTAINING SIALYL SUGARS AND THEIR DERIVATIVES” (E-L Management Corp., priority 1998, dated 2000).
